We go through two molecules from patent US20100056468A1, “Pyrimidine Derivatives As Anticancer Agents” (University Health Network, priority 2007, published 2010).

The target of one assay is T1, Hs ODCase (Homo sapiens, UniProt P11172).
T1 construct: ODCase region of human UMP synthase
As to the kind of experiment: Reversible (competitive) inhibition of ODCase, calorimetric assay. The format is biochemical. The settings on record: 37° C., 60 nM enzyme. Here is the method:
The stock solution of enzyme (60 μM) was prepared in 50 mM Tris (pH 7.5), 20 mM DTT, and 40 mM NaCl and incubated overnight at 4° C. This stock sample was later used to prepare the enzyme assay samples. The enzyme was kept on ice during the experiment. The enzyme stock was diluted with 50 mM Tris buffer containing 1 mM DTT to prepare 60 nM enzyme assay samples. The final substrate concentration was 15 or 20 μM. Concentrated samples of inhibitors were prepared in 50 mM Tris (pH 7.5). The volumes and concentrations of the enzyme and substrate were the same as described above for the reaction without inhibitor. All three compounds were tested in a competitive inhibition assay where enzyme is mixed with the inhibitor and the reaction is initiated by the substrate addition. Assay samples were prepared in 50 mM Tris, 1 mM DTT. The final assay concentration of 5-F-6-azido-UMP was 0, 0.25, 0.50, 0.75, 1.0 μM. The assay samples were prepared with 0, 0.2, 0.4, 1.0, and 2.0 μM and 0, 50, 100, 250, 500 μM 5-fluoro-6-ethyl-UMP.
The initial data analyses were done in Origin 7.0 software. The raw data representing the heat change over time were converted to the reaction rate at each recorded time point. A Michaelis-Menten plot was constructed and the data were fitted to MM equation (Eq. 1) to determine the kinetic parameters KM and kcat. The molar enthalpy (ΔH) was also automatically calculated.
To calculate the Ki the data were exported to GraFit 5.0 program. The data points were fitted to the competitive inhibition equation (Eq. 2) and the Ki was estimated from the Dixon plot.

Another assay concerns the target Mt ODCase (Methanothermobacter thermautotrophicus, UniProt O26232). The experiment in a line: biochemical. Details: species or system M. thermoautotrophicum. Conditions: reversible inhibition, 20 nM enzyme, 40 μM OMP.
For assay [1], the system named is OCI-AML-1. As to the kind of experiment: Apoptosis assay (Annexin V/PI, FACS). The format is cell-based, human. Conditions: OCI-AML-1, 4 μM. The protocol:
(§1) Cells were seeded in duplicate at 10^5 cells/ml in 24-well plates. 4 μM final concentration of compounds Io, In or Iag (Table 2) were added immediately after seeding. Water was added to the control wells. Every 24 hr, cells were harvested, washed in PBS, and stained with Annexin V/propidium iodide (PI) (1:200) using Annexin-V-FLUOS staining kit (Roche) according to the manufacturer's instructions. Annexin V is a Ca^2+− dependent phospholipids-binding protein with high affinity for phosphatidylserine (PS). It can be used as a probe to detect PS exposure on the outer leaflet of the cell membrane and is therefore widely used for detection of apoptotic cells. Unlike apoptotic cells (Annexin V^+/PI^−), necrotic cells are Annexin V^+PI^+. PI is a DNA stain. FACS was used to analyze the staining.
(§2) To determine whether reduced expansion of different cell lines in culture with Io, In, and Iag could be attributed to a decrease in cell survival, we stained treated and control cells with Annexin V and PI. Four cell lines (OCI-AML-1, OCI-Ly7, OCI-My2, and SKW3) were cultured in presence of 4 μM of […] for 4 days. Cells were harvested daily and Annexin V/PI staining was done by FACS. Our results clearly show an increase in the percentage of apoptotic (annexin V^+PI^−) cells cultured with Io, In, or Iag compared to the control cells (Table 6). Increased cell death was first observed on day 2 of culture.

Assay [2] deals with OCI-Ly-7. As to the kind of experiment: Apoptosis assay (Annexin V/PI, FACS). The class given is cell-based, human. The settings on record: OCI-Ly-7, 4 μM. Here is the method:
as §1, §2

The subject of assay [3] is SKW3. The experiment in a line: Apoptosis assay (Annexin V/PI, FACS). The format is cell-based, human. Conditions: SKW3, 4 μM. Here is the method:
as §1, §2

Assay [4] deals with OCI-My-2. As to the kind of experiment: Apoptosis assay (Annexin V/PI, FACS). Conditions: OCI-My-2, 4 μM. The class given is cell-based, human. The protocol: as §1, §2
Assay [5] relates to leukemias (OCI-AML-1, OCI-AML-2, SKW3), lymphomas (OCI-Ly-7), multiple myeloma (OCI-My-2). The experiment in a line: In vitro cell proliferation assay (WST.1), summary over cell lines. The class given is cell-based. The settings on record: Homo sapiens; OCI-AML-1, OCI-AML-2, SKW3, OCI-Ly-7, OCI-My-2; read-out: IC50 values, range over cell lines. The protocol:
(§3) These cell lines were grown in Iscove's MDM supplemented with 5% fetal calf serum (FCS), 50 μM 2-mercaptoethanol, 100 μg/ml penicillin, and 100 μg/ml streptomycin. Cell lines growing in suspension were maintained at 0.5-1.5×10^6 cell/ml, while adherent cell lines were maintained at subconfluent densities.
(§4) Cell lines were seeded in triplicate at 10^4 cells/100 μl in 96-well plates. Peripheral blood mononuclear cells were seeded in triplicate at 10^5 cells/100 μl in 96-well plate. Different test compounds were added immediately at final concentrations ranging between 0 to 100 μM. All compounds were dissolved in sterile deionized water, so water was added to the control wells. On day 3, WST.1 assay (Roche) was used to measure the effect of different test compounds on cell growth. WST.1 assay is a calorimetric assay for the nonradioactive quantification of cell proliferation, cell viability, and cytotoxicity. The assay was performed according to manufacturer's instructions (Roche). It relies on the cleavage by cellular enzymes of WST.1 (water soluble tetrazolium salt: 4-[3-(4-iodophenyl)-2-(4-nitrophenyl)-2H-5-tetrazolio]-1,3-benzene disulfonate) to formazan. The amount of formazan dye formed correlates to the number of metabolically active cells in the culture and is readily read in an ELISA microplate reader using an absorbance wavelength of 440 nm. These OD values are plotted against concentrations of different compounds and IC50 is determined for each compound.

In assay [6] the test system is OCI-AML-1. The experiment in a line: In vitro cell proliferation assay (WST.1, Table 5). The format is cell-based. The settings on record: Homo sapiens, 72 h; OCI-AML-1, day 3. Here is the method:
as §3, §4

The subject of assay [7] is OCI-Ly-7. The experiment in a line: In vitro cell proliferation assay (WST.1, Table 5). The format is cell-based. The settings on record: Homo sapiens, OCI-Ly7, 72 h; OCI-Ly-7, day 3. Here is the method: as §3, §4
In assay [8] the test system is SKW3. The experiment in a line: In vitro cell proliferation assay (WST.1, Table 5). The format is cell-based. The settings on record: Homo sapiens, 72 h; SKW3, day 3. Here is the method:
as §3, §4

For a further assay, the system named is OCI-AML-2. As to the kind of experiment: In vitro cell proliferation assay (WST.1, Table 5). The format is cell-based. Conditions: Homo sapiens, OCI-AML2, 72 h; OCI-AML-2, day 3. Here is the method:
as §3, §4

A further assay relates to MCF7. As to the kind of experiment: In vitro cell proliferation assay (WST.1, Table 5). The format is cell-based. The settings on record: Homo sapiens, 72 h; MCF7, day 3. The protocol: as §3, §4
For a further assay, the system named is MDA468. As to the kind of experiment: In vitro cell proliferation assay (WST.1, Table 5). The class given is cell-based. Conditions: Homo sapiens, 72 h; MDA468, day 3. Here is the method:
as §3, §4

Another assay deals with PC3. The experiment in a line: In vitro cell proliferation assay (WST.1, Table 5). The settings on record: Homo sapiens, PC-3, 72 h; PC3, day 3. The format is cell-based. The protocol: as §3, §4
Assay [9] concerns OCI-My-2. As to the kind of experiment: In vitro cell proliferation assay (WST.1, Table 5). The class given is cell-based. Conditions: Homo sapiens, 72 h; OCI-My-2, day 3. Here is the method: as §3, §4
The test system of a further assay is LOX. As to the kind of experiment: In vitro cell proliferation assay (WST.1, Table 5). The format is cell-based, human. The settings on record: day 3. Here is the method:
as §3, §4

Structures are written as SMILES.

Broadly, the Ki is a dissociation constant, usually derived from enzyme kinetics or from competition with a known ligand. Low readings indicate a stronger hold on the target, high ones a looser hold on the target. On to `O=c1[nH]c(=O)n([C@@H]2O[C@H](COP(=O)(O)O)[C@@H](O)[C@H]2O)cc1F` [Compound 5-F-UMP, 5-F-UMP, reference compound], for which the Ki at Hs ODCase came to 97800 ± 5900 nM; at Mt ODCase it was 646000 ± 15000 nM.

Broadly, the IC50 is the concentration at which inhibition is half-maximal. For the molecule `O=Cc1c(F)c(=O)[nH]c(=O)n1C1OC(CO)C(O)C1O` (stereo not shown) [Iag], the “Fold increase in % of apoptotic (annexinV+PI−) cells: drug-treated vs.control” value worked out at 1.4 fold in the assay on OCI-AML-1 [1] (day 1); 5.3 fold in the assay on OCI-AML-1 [1] (day 2); 14 fold with OCI-AML-1 [1] (day 3); 0.82 fold in the assay with OCI-Ly-7 [2] (day 1); 2.1 fold in the assay with OCI-Ly-7 [2] (day 2); 6.2 fold in the assay on OCI-Ly-7 [2] (day 3). Moreover, the “Fold increase in % of apoptotic (annexinV+PI−) cells: drug-treated vs.control” value in the assay with SKW3 [3] (day 1) is 1.2 fold; in the assay with SKW3 [3] (day 2), 4.6 fold; in the assay with SKW3 [3] (day 3) it was 5.2 fold; with OCI-My-2 [4] (day 1), 0.77 fold; with OCI-My-2 [4] (day 2), 1.7 fold; with OCI-My-2 [4] (day 3), 2.7 fold. The IC50 in assay [5] is 300 to 2100 nM; with OCI-AML-1 [6], 300 nM; in the assay on OCI-Ly-7 [7], 600 nM; in the assay with SKW3 [8] it was 300 nM; in the assay on OCI-AML-2, 700 nM; in the assay on MCF7 it was 23700 nM. Also, the IC50 was 1900 nM in the assay on MDA468; greater than 100000 nM in the assay on PC3; 400 nM in the assay on OCI-My-2 [9]; 300 nM in the assay with LOX (Homo sapiens, 72 h); 400 nM in the assay with LOX.
